In US20250074966A1, “AGENTS AND METHODS FOR PREVENTING OR INHIBITING ADAPTIVE IMMUNE RESPONSES ASSOCIATED WITH MULTIPLE SCLEROSIS” (Adaptive Biotechnologies Corporation, priority 2023, published 2025):

Tested on: ZO-1
Assay: Primary human T cells transfected with TCRs co-cultured overnight with HLA-DRB1*15:01 positive K562 target cells expressing antigen-encoding constructs, T cell activation via CD137 expression
Type: cell-based
Conditions: antigen-encoding construct delivered as IVT RNA to K562 cells

## MEETAIWEQHTVTLHRA [ZO-1]
  processing and presentation of the antigen by HLA-DRB1*15:01 positive target cells: processed and presented
